# Entries after “also recorded” stand apart in the source; their conditions may differ. Where a name gives a salt, the structure may show the parent alone. Read-outs that look alike come from different tables or passages of the source.
# Legend:
# physchem [1] = details: thermodynamic from solid, Instantaneous Solubility
# [2] = Accelerated closed-vial stability study; format: physicochemical; details: 40° C., 75% RH
# [3] = pH 1.2
# [4] = Variable-temperature XRPD; format: physicochemical; details: heated up to 100° C.
# Experimental: In this application, X-ray powder diffraction (XRPD) data were collected using a BrukerD8 Advance diffractometer; parameters are as follows: Cu radiation; wavelength: 1.54 Å; Current voltage: 40 KV, 40 mA; Scan range: 3˜40° 2θ.
# [5] = 40° C., 75% RH; for Assay (%) / Color / XRPD: open vial
# Experimental: The samples were placed under accelerated open-vial conditions (40° C., 75% RH, and open vial) to assess the stability of both samples.
# physchem [6] = details: thermodynamic from solid
# [7] = cited from earlier work
# [8] = pH 1.2, simulated gastric fluid
# [9] = sealed 5 mL vial in self-sealing bag
compound,measurement,setting,value
"C=CC(=O)Nc1cc(Nc2nccc(-n3cc(CN(C)C)c(-c4ccccc4)n3)n2)c(OC)cc1N1CCOCC1 [Form A, lazertinib mesylate]",solubility,physchem [1]; [8],> 80 mg/mL
same,solubility,"physchem [1]; pH 4, aqueous buffer",> 50 mg/mL
same,solubility,physchem [1]; water,> 50 mg/mL
same,remains stable for at least (time),[2]; 5 mL vial packed in a self-sealing bag (sealed),at least 1 month
same,change in assay value,[2]; [9],minimal change; also recorded: no significant changes
same,color before and after storage,[2]; [9],white; also recorded: no significant changes
same,crystal form before and after storage,[2]; [9],remains unchanged; also recorded: no significant changes
same,Instantaneous Solubility,[3],>50 mg/mL
same,crystal form on heating (variable-temperature XRPD),[4],remains unchanged
same,remains stable for at least (time),[5]; open,at least 21 days
same,Assay (%),[5]; 0 day,98.79%
same,Color,[5]; 0 day,white
same,XRPD,[5]; 0 day,Form A
same,Assay (%),[5]; 21 days,98.44%
same,Color,[5]; 21 days,white
same,XRPD,[5]; 21 days,Form A
same,solubility at 4 hrs,physchem [6]; [8],> 60 mg/mL
same,solubility at 12 hrs,physchem [6]; [8],> 60 mg/mL
same,solubility thermodynamic,physchem [6]; [8],> 60 mg/mL
same,solubility at 4 hrs,"physchem [6]; pH 4, aqueous buffer",67.9 mg/mL
same,solubility at 12 hrs,"physchem [6]; pH 4, aqueous buffer",67 mg/mL
same,solubility thermodynamic,"physchem [6]; pH 4, aqueous buffer",> 60 mg/mL
same,solubility at 4 hrs,physchem [6]; water,70.7 mg/mL
same,solubility at 12 hrs,physchem [6]; water,69.4 mg/mL
same,solubility thermodynamic,physchem [6]; water,> 60 mg/mL
"C=CC(=O)Nc1cc(Nc2nccc(-n3cc(CN(C)C)c(-c4ccccc4)n3)n2)c(OC)cc1N1CCOCC1 [Form I, lazertinib mono-mesylate, reference compound]",solubility,[7]; pH 1.2,14.9 mg/mL
same,solubility,[7]; pH 4,20.9 mg/mL
same,Assay (%),[5]; 0 day,98.73%
same,Color,[5]; 0 day,yellow
same,XRPD,[5]; 0 day,Form I
same,Assay (%),[5]; 21 days,70.35%
same,Color,[5]; 21 days,pink
same,XRPD,[5]; 21 days,Form I
same,change in assay value (in words),"[5]; open, 21 days",significant decrease
same,change in color (in words),"[5]; open, 21 days",from yellow to pink
